In ChEMBL document CHEMBL1201862, “PubChem BioAssay data set” (2004):
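Grown in 96-well plates, cells were treated for 48 hours with each compound at five concentrations. Insufficient inhibition: endpoint recorded as highest concentration tested. Here, GI50 denotes the concentration required for 50% inhibition of growth.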 The source made the active and inactive calls. No stated cut-off is given here; in the data, active = GI50 up to about 1.1 µM and inactive = higher.

Legend:
Assay in all cases: growth of human tumour cells (NCI), 48 h
DMS-114 = tested on: DMS-114
HOP-18 = tested on: HOP-18
KM-20L2 = tested on: KM-20L2
LXFL 529 = tested on: LXFL 529
RXF 631 = tested on: RXF 631
SNB-78 = tested on: SNB-78
XF498 = tested on: XF498
Hs-578T = tested on: Hs-578T
MDA-N = tested on: MDA-N

SMILES	GI50 (DMS-114)	GI50 (HOP-18)	GI50 (KM-20L2)	GI50 (LXFL 529)	GI50 (RXF 631)	GI50 (SNB-78)	GI50 (XF498)	GI50 (Hs-578T)	GI50 (MDA-N)
CC[C@@H](C(=O)[C@@H](C)[C@@H](O)[C@H](C)CCc1ccc(C)c(O)c1C(=O)O)[C@H]1O[C@](CC)([C@H]2CC[C@](O)(CC)[C@H](C)O2)C[C@@H]1C [LASALOCID A SODIUM]	0.946 µM (active)	3.08 µM (inactive)	1.78 µM (inactive)	1.18 µM (inactive)	0.741 µM (active)	3.13 µM (inactive)	1.25 µM (inactive)	–	–
Cc1ccc([Se][Se]c2ccc(C)cc2)cc1	11.6 µM (inactive)	6.46 µM (inactive)	38.6 µM (inactive)	4.76 µM (inactive)	21.9 µM (inactive)	16.5 µM (inactive)	12.7 µM (inactive)	–	–
CC(=O)NC(CCCCN(Cc1ccccc1)C(=O)N(C)N=O)C(=O)NCc1ccccc1 (stereo unspecified)	43.6 µM (inactive)	–	> 100 µM (inactive)	51.5 µM (inactive)	> 100 µM (inactive)	> 100 µM (inactive)	> 100 µM (inactive)	–	–
C[C@]12Cc3cn[nH]c3C(=O)C1CC[C@@H]1C2CC[C@@]2(C)C1CC[C@]2(C)O (stereo partly specified)	> 100 µM (inactive)	> 100 µM (inactive)	> 100 µM (inactive)	> 100 µM (inactive)	> 100 µM (inactive)	> 100 µM (inactive)	> 100 µM (inactive)	–	–
O=c1[nH]c2cc(-c3ccccc3)nc-2nn1-c1c(Cl)cc(Cl)cc1Cl	> 100 µM (inactive)	18.8 µM (inactive)	25.8 µM (inactive)	30.5 µM (inactive)	46 µM (inactive)	37.5 µM (inactive)	27.9 µM (inactive)	–	–
C[C@]12CC[C@H](OC(=O)Nc3ccccc3)CC1=CC[C@@H]1C2CC[C@]2(C)/C(=N/OC(=O)Nc3ccccc3)CCC12 (stereo partly specified)	2.71 µM (inactive)	2.4 µM (inactive)	3.2 µM (inactive)	1.12 µM (inactive)	6.37 µM (inactive)	> 100 µM (inactive)	1.75 µM (inactive)	–	–
CC(O)C(NC(=O)C(CS)NC(=O)C(CO)NC(=O)C(CCCCN)NC(=O)C(Cc1c[nH]c2ccccc12)NC(=O)C(Cc1ccc(O)cc1)NC(=O)C(CS)NC(=O)C(N)Cc1ccccc1)C(N)=O (stereo unspecified)	35.8 µM (inactive)	22.6 µM (inactive)	23.9 µM (inactive)	–	19.1 µM (inactive)	31.3 µM (inactive)	21.6 µM (inactive)	> 25 µM (inactive)	> 25 µM (inactive)
N=C(N)N/N=C(/CC1OC(=O)c2ccccc21)c1ccc2ccccc2c1 (stereo unspecified)	12.9 µM (inactive)	18.5 µM (inactive)	24.7 µM (inactive)	14.6 µM (inactive)	21.4 µM (inactive)	> 100 µM (inactive)	7.71 µM (inactive)	–	–
CCc1cccc(C(C)C)c1NC(=O)C(=O)C(CC(=O)Nc1ccc(Cl)c(Cl)c1)C(=O)OC (stereo unspecified)	> 100 µM (inactive)	99.5 µM (inactive)	26.2 µM (inactive)	–	> 100 µM (inactive)	> 100 µM (inactive)	> 100 µM (inactive)	–	–
COc1ccc(/C=c2\sc3nnc(CCC(=O)Nc4cccc(C(F)(F)F)c4)n3c2=O)cc1	> 100 µM (inactive)	50.4 µM (inactive)	> 100 µM (inactive)	> 87.1 µM (inactive)	> 100 µM (inactive)	> 100 µM (inactive)	> 100 µM (inactive)	–	–
COC1(OC)CC2C=C(S(=O)(=O)c3ccccc3)C1N(Cc1ccccc1)C2=O (stereo unspecified)	20.3 µM (inactive)	> 100 µM (inactive)	28.9 µM (inactive)	20.3 µM (inactive)	26.3 µM (inactive)	21.2 µM (inactive)	19.1 µM (inactive)	–	–
